Source: patent US5096925A, “N-substituted butyramide derivatives” (Ciba-Geigy Corporation, priority 1990, dated 1992)

What was measured:
[1] = hot plate test for analgesia in the mouse (mean response latency); format: in vivo; details: for dose that increases the mean response latency in the hot plate test: mice, intracerebroventricular administration
Description: The analgesic activity is demonstrable by potentiation of the analgesic effects of enkephalin and derivatives thereof, and by classical analgesic tests, such as the phenyl-p-benzoquinone induced writing test [J. Pharmacol. Exp. Therap. 125, 237 (1959)] and the hot plate test in the mouse [J. Pharmaol. Exp. Therap. 107, 385 (1953)].
The analgesic activity can be measured by the hot-plate test method in the mouse as follows and essentially as described in J. Pharmacol. Exp. Therap. 107, 385 (1953).
The compound is administered intravenously or intracerebroventricularly 15 minutes prior to the measurement of the response latency. Male CF, (Charles River) mice (20 g) are allowed food and water ad libitum up to the time of testing. The hot plate test for analgesia utilizes an apparatus with an electrically heated, thermostatically controlled copper plate (Analgesia Meter). A Plexiglas cylinder, 25.5 cm×16 cm (inner diameter) and open at both ends, confines the mice to the central area of the hot plate. The surface temperature is maintained at 55°±0.5° C. Response latency is recorded as the time (seconds) from contact with the hot plate until a jump occurs or at 240 seconds if no response occurs within this time. Animals are individually tested at 15 minutes following intravenous or intracerebroventricular (ICV) injection. Intracerebroventricular injections into the lateral ventricle are carried out according to the method of Haley and McCormick, as described in Brit. J. Pharmacol. 12; 12, 1957.
The mean response latency and standard error are calculated. Significance is determined using Student's unpaired t-test, 2-tailed comparison.

enkephalinase [2] = target: T1, enkephalinase (Rattus norvegicus, UniProt P07861); experiment: in vitro inhibition of enkephalinase (3H-Tyr-gly-gly generation from 3H-Leu-enkephalin, synaptic membranes from rat striatum); format: biochemical; details: rat striatum synaptic membrane preparation, pH 6-5, 15 minutes at 30° C., 10^-6 M Bestatin
T1 construct: synaptic membrane preparation from rat striatum; from tissue; host or cells: rat striatum, synaptic membrane preparation
T1 sequence (P07861 1-750): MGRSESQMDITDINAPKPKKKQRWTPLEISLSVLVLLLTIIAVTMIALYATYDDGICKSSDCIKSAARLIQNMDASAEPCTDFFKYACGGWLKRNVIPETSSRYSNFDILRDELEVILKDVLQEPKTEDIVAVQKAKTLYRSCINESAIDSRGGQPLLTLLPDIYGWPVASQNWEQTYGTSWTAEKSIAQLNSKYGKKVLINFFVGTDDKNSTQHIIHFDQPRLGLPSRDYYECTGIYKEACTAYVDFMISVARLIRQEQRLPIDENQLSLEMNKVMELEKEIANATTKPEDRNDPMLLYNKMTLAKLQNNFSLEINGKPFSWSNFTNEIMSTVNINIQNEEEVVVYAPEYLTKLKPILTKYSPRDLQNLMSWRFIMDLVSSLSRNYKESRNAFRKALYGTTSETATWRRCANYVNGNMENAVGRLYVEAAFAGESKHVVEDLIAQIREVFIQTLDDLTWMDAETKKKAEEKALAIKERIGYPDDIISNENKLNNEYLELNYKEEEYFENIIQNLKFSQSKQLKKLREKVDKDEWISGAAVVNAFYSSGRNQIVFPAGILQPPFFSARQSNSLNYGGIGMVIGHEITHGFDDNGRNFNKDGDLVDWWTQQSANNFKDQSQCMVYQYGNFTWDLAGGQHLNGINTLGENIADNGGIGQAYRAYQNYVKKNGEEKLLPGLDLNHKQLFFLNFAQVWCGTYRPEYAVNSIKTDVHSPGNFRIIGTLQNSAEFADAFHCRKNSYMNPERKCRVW
Description: The enkephalinane inhibitory activity is determined in vitro by an adaptation of the method of Alstein et al. as described in Life Sciences 28, 185 (1981), as follows:
A mixture of a solution of the test compound in distilled water or distilled water and ethanol diluted with pH 6-5 buffer and of a synaptic membrane preparation from rat striatum is incubated at pH 6-5 with ^3 H-Leu-enkephalin for 15 minutes at 30° C., in the presence of 10^-6 M Bestatin (to inhibit aminopeptidase activity). The reaction is stopped by the addition of 30% acetic acid and the reaction product ^3 H-Tyr-gly-gly is separated from unreacted ^3 H-Leu-enkephalin on a Porapak O column followed by a Cu^++ -chelex column. The ^3 H-Tyr-gly-gly is counted by liquid scintillation. The amount of ^3 H-Tyr-gly-gly generated in the presence of test compound as compared to control is then calculated. An IC50 value representing the concentration of test compound required for 50% inhibition of ^3 H-Tyr-gly-gly generation is then determined graphically.

enkephalinase [3] = experiment: in vivo potentiation of the analgesic effect of met-enkephalin (enkephalinase inhibitory activity in vivo); set-up: species or system mouse; details: met-enkephalin (20 ug), intracerebroventricular administration
Description: (§1) The enkephalinase inhibitory activity can be determined in vivo, e.g. by measuring the potentiation of the analgesic activity of intracerebrally administered D-Ala^2 -met^5 -enkephalinamide or met-enkephalin in mice. The enkephalinase inhibitory activity is also determined in vivo by measuring the increase in endogenous brain enkephalin levels, or by direct measurement of striatum enkephalinase activity in mice.

enkephalinase [4] = experiment: in vivo potentiation of the analgesic effect of D-Ala^2-Met^5-enkephalinamide (enkephalinase inhibitory activity in vivo); set-up: species or system mouse; details: s.c.
Description: as §1

IC50 (enkephalinase [2])	SMILES	dose that increases the mean response latency in the hot plate test [1]	other results
	CC1(C)O[C@H]2O[C@H]([C@H]3COC(C)(C)O3)[C@H](OC(=O)CCNC(=O)[C@H](Cc3ccccc3)C[C@@H](Cc3ccccc3)C(=O)O)[C@H]2O1 [Example 17/10, 1,2:5,6-di-O-isopropylidene-D-glucofuranos-3-yl N-(2S,4S-dibenzyl-4-carboxybutyryl)-3-aminopropionate]		minimal effective dose ([1]; iv, 0.25 h, mouse, effective at the dose "and lower"): ≤ 30 mg/kg
~20 nM	O=C(O)CCNC(=O)[C@@H](Cc1ccccc1)C[C@H](Cc1ccccc1)C(=O)O (relative stereo) [N-[(R*,R*)-2,4-dibenzyl-4-carboxybutyryl]-3-aminopropionic acid]		
	CCOC(=O)[C@@H](Cc1ccccc1)C[C@H](Cc1ccccc1)C(=O)NCCC(=O)O (relative stereo) [N-[4-ethoxycarbonyl-(R*,R*)-2,4-dibenzylbutyryl]-3-aminopropionic acid]	~0.03 µg	dose that potentiates the analgesic effect of met-enkephalin (enkephalinase [3]): about 0.01 ug
~8 nM	O=C(O)CCNC(=O)[C@H](Cc1ccccc1)C[C@@H](Cc1ccccc1)C(=O)O [N-(2S,4S-dibenzyl-4-carboxybutyryl)-3-aminopropionic acid]		
~20 nM	O=C(O)CCCNC(=O)[C@@H](Cc1ccccc1)C[C@H](Cc1ccccc1)C(=O)O (relative stereo) [N-[(R*,R*)-2,4-dibenzyl-4-carboxybutyryl]-4-aminobutyric acid]	about 0.1 ug	
	CC1(C)O[C@@H]2[C@@H](COC(=O)CCNC(=O)[C@H](Cc3ccccc3)C[C@@H](Cc3ccccc3)C(=O)O)OC(=O)[C@@H]2O1 [17/6, 2,3-O-isopropylidene-D-ribono-(1,4-lactone)-5-yl N-(2S,4S-dibenzyl-4-carboxybutyryl)-3-aminopropionate]		dose that potentiates the analgesic effect of D-Ala^2-Met^5-enkephalinamide (enkephalinase [4]): 30 mg/kg
